# In paper PMC10318456, “Selective inhibitors of the PSEN1–gamma-secretase complex” (The Journal of Biological Chemistry, 2023):
# Values joined by “and” are separate entries in the source; they are usually repeats but may differ in a detail not shown here. Equal values may be shown once.
# Legend:
# [1] = test system: PSEN1 versus PSEN2 γ-secretase complexes; assay: Comparison of the four MEF cell lines: selectivity between γ-secretase complexes (IC50 ratios); type: cell-based, human
# Excerpt: (§1) Mouse embryonic fibroblast (MEF) cells deficient for the Psen and Aph1 genes (Psen1/2^−/−, Aph1ABC^−/−) were reconstituted with human PSEN1 or PSEN2 and with human APH1A or APH1B to generate four independent cell lines, each constitutively expressing exclusively one type of γ-secretase complex (Fig. S1A) ([19]). A human APP-C99-GFP reporter was introduced to enable the measurement of Aβ peptides in the conditioned media of the cells to monitor γ-secretase activity. The assay was established in a 96-well format.
# GraphPad Prism 7 software was used to generate inhibition fitting curves (four-parameter logistic equation, nonlinear regression) and to determine IC50 and 95% CI values (Fig. S2). Selectivity values (IC50 ratios of PSEN1 versus PSEN2) above 10 are highlighted in red.
# (§2) The number of plated cells and incubation times were determined in respect to linearity of Aβ peptide secretion, the dynamic range of Aβ peptide quantification in the medium, and sensitivity to dimethylsulfoxide (DMSO). […] MEF cells were plated in DMEM F12 supplemented with 10% FCS at 10,000 cells per well in 96-well clear bottom plates in the late afternoon and cultured for 16 h at 37 °C, 5% CO2. In the morning of the second day, the medium was replaced with 60 μl of DMEM/F12 supplemented with 2% FCS, and GSI or DMSO (controls) were added. Compounds were tested in serial dilutions with concentrations ranging from […] to 0.1 nM with 3-fold changes. The final concentration of DMSO in all wells was 0.2%. Plates were put in the incubator again at 37 °C, 5% CO2. After 8 h, the culture media were collected, and 30 μl was used to measure Aβ40 peptides. The cell viability was assessed using the CellTiter-Glo Luminescent assay (Promega) that measures ATP production. All screens were performed at one site, and reported IC50 values throughout the manuscript are from this site (Beerse) unless otherwise indicated.
# GraphPad Prism 7 software (https://www.graphpad.com) was used to generate inhibition fitting curves (four-parameter logistic equation, nonlinear regression) and to determine IC50 values and 95% CI.
# [2] = test system: PSEN1–γ-secretase complex compared to PSEN2–γ-secretase complexes; details: cell-free in vitro assays; cited from earlier work
# [3] = test system: T cell acute lymphoblastic leukemia; design: method as in PMID 31142678; details: mice; cited from earlier work
# [4] = molecular target: T1, PSEN2-APH1B γ-secretase complex (Homo sapiens, UniProt P49810+Q8WW43+Q92542+Q9NZ42); assay: Aβ40 secretion by MEF cell line expressing only PSEN2-APH1B γ-secretase (APP-C99-GFP reporter); type: cell-based; details: 8 h, Beerse site unless otherwise indicated, read-out: IC50, Aβ40 peptides
# T1 construct: expressed in transfected cells; host or cells: Psen1/2 double KO/Aph1ABC triple KO MEFs, pMSCV retroviral PSEN-IRES-APH1
# Excerpt: as §1
# Conditional Psen1/2 double KO mice were crossed with conditional Aph1ABC triple KO mice ([29], [52], [58], [59]). At embryonic day 7.5, embryos were dissected and dissociated, and cells were plated in the presence of Dulbecco’s modified Eagle’s medium (DMEM)/F12 50% fetal calf serum (FCS) (Invitrogen). […] Psen1/2 double KO/Aph1ABC triple KO MEFs were generated by transduction with a Cre-GFP–expressing adenoviral vector, and GFP-positive MEFs were sorted by fluorescence-activated cell sorting analysis. […]
# (§3) The number of plated cells and incubation times were determined in respect to linearity of Aβ peptide secretion, the dynamic range of Aβ peptide quantification in the medium, and sensitivity to dimethylsulfoxide (DMSO). […] The cell viability was assessed using the CellTiter-Glo Luminescent assay (Promega) that measures ATP production. […]
# [5] = test system: WT and PSEN2-deficient mice; design: method as in PMID 23197721; details: cited from earlier work
# [6] = molecular target: T2, PSEN1-APH1A γ-secretase complex (Homo sapiens, UniProt P49768); assay: Aβ40 secretion by MEF cell line expressing only PSEN1-APH1A γ-secretase (APP-C99-GFP reporter); type: cell-based; details: 8 h, Beerse site unless otherwise indicated, read-out: IC50, Aβ40 peptides
# T2 construct: expressed in transfected cells; host or cells: Psen1/2 double KO/Aph1ABC triple KO MEFs, pMSCV retroviral PSEN-IRES-APH1
# Excerpt: as §1
# (§4) Conditional Psen1/2 double KO mice were crossed with conditional Aph1ABC triple KO mice ([29], [52], [58], [59]). At embryonic day 7.5, embryos were dissected and dissociated, and cells were plated in the presence of Dulbecco’s modified Eagle’s medium (DMEM)/F12 50% fetal calf serum (FCS) (Invitrogen). Primary MEFs were immortalized by transduction with LargeT antigen. Psen1/2 double KO/Aph1ABC triple KO MEFs were generated by transduction with a Cre-GFP–expressing adenoviral vector, and GFP-positive MEFs were sorted by fluorescence-activated cell sorting analysis. Psen1/2 Aph1ABC-deficient MEFs were maintained in DMEM/f12 10% FCS. To rescue γ-secretase expression, Psen1/2 double KO/Aph1ABC triple KO MEFs were transduced using Murine Stem Cell Virus retroviral vector system (pMSCV) viral vectors (Clontech) containing the human coding sequences of the different PSEN and APH1 homologs and the zeocin selection marker. An Internal Ribosome Entry Site sequence was cloned between the coding sequences for PSEN and APH1 to ensure co-expression of both proteins. Stable transfected cell lines were selected using 500-μg/ml zeocin (Invitrogen). Four different combinations were made: PSEN1 and APH1AL, PSEN1 and APH1B, PSEN2 and APH1AL, and PSEN2 and APH1B. These cell lines were transduced with pMSCV viral vectors (Clontech) expressing APP-C99-GFP-puromycin. After puromycin selection (5 μg/ml), GFP-positive cells were selected through FACS sorting. For the alanine mutagenesis experiment, pMSCV PSEN1-APH1A viral vectors were generated by using a long PCR-based QuikChange strategy (Stratagene). Stable cell lines without clonal selection were generated for each mutant as described above. All cell lines were regularly tested for the absence of mycoplasma and used for maximum 20 passages in culture.
# as §3
# [7] = molecular target: T3, PSEN2-APH1A γ-secretase complex (Homo sapiens, UniProt P49810+Q92542+Q96BI3+Q9NZ42); assay: Aβ40 secretion by MEF cell line expressing only PSEN2-APH1A γ-secretase (APP-C99-GFP reporter); type: cell-based; details: 8 h, Beerse site unless otherwise indicated, read-out: IC50, Aβ40 peptides
# T3 construct: expressed in transfected cells; host or cells: Psen1/2 double KO/Aph1ABC triple KO MEFs, pMSCV retroviral PSEN-IRES-APH1
# Excerpt: as §1
# as §4, with “Four different combinations were made: PSEN1 and APH1AL, PSEN1 and APH1B, PSEN2 and APH1AL, and PSEN2 and APH1B. These cell lines were transduced with pMSCV viral vectors (Clontech) expressing APP-C99-GFP-puromycin. After puromycin selection (5 μg/ml), GFP-positive cells were selected through FACS sorting. For the alanine mutagenesis experiment, pMSCV PSEN1-APH1A viral vectors were generated by using a long PCR-based QuikChange strategy (Stratagene). Stable cell lines without clonal selection were generated for each mutant as described above. All cell lines were regularly tested for the absence of mycoplasma and used for maximum 20 passages in culture.” left out
# as §3
# APP or Notch processing = details: in vitro; cited from earlier work
# [8] = molecular target: T4, PSEN1-APH1B γ-secretase complex (Homo sapiens, UniProt P49768); assay: Aβ40 secretion by MEF cell line expressing only PSEN1-APH1B γ-secretase (APP-C99-GFP reporter); type: cell-based; details: 8 h, Beerse site unless otherwise indicated, read-out: IC50, Aβ40 peptides
# T4 construct: expressed in transfected cells; host or cells: Psen1/2 double KO/Aph1ABC triple KO MEFs, pMSCV retroviral PSEN-IRES-APH1
# Excerpt: as §1, §4, §2
# Standard 96-well SECTOR plates (MSD) were coated with 1.5 μg/ml anti-Aβ JRFcAβ40/28 capture antibody in a final volume of 50 μl of PBS 0.05% Tween 20.
SMILES,selectivity toward the different γ-secretase complexes ([1]; four MEF cell lines),"potency toward all four γ-secretase activities ([1]; four MEF cell lines, in words)","selectivity toward the different γ-secretase complexes ([1]; four MEF cell lines, listed as LY-411575)",selectivity PSEN1–APH1B versus PSEN1–APH1A ([1]; MEF cell lines),selectivity for PSEN1 complexes versus PSEN2 complexes [2],selectivity toward the PSEN1–γ-secretase complex compared to PSEN2–γ-secretase complexes [2],protection in T cell acute lymphoblastic leukemia [3],IC50 [4],Aβ levels ([5]; WT and PSEN2-deficient mice),safety of treatment ([5]; WT mice),Notch-related toxicity ([5]; mice genetically deficient for PSEN2),IC50 [6],IC50 [7],selectivity versus APP or Notch processing (APP or Notch processing),IC50 [8]
C[C@H](NC(=O)[C@@H](O)c1cc(F)cc(F)c1)C(=O)N[C@@H]1C(=O)N(C)c2ccccc2-c2ccccc21 [LY411575],< 10 fold,low nanomolar potencies,without convincing selectivity,,,,,,,,,,,,
"O=S(=O)(NC1CCC(c2cc(F)ccc2F)(S(=O)(=O)c2ccc(Cl)cc2)CC1)C(F)(F)F (stereo not drawn) [MRK-560, N-[cis-4-[(4-chlorophenyl)sulfonyl]-4-(2,5-difluorophenyl)cyclohexyl]-1,1,1-trifluoromethanesulfonamide]",,,,4 fold,5 fold,37 fold,protected the mice,> 130 nM,potently and dose dependently reduced Aβ levels,safe,caused major Notch-related toxicity,1.4 nM,> 130 nM,does not show selectivity,0.42 nM and 0.4 nM
